Results reported in the NIST ThermoML archive (doi:10.1016/j.jct.2019.02.028).
Values joined by “and” are separate entries in the source; they are usually repeats but may differ in a detail not shown here. Equal entries are not always repeated.

Assay: xn = mol fraction of the nth substance listed
Details: Gas, Burnett expansion method

C=C(F)C(F)(F)F [2,3,3,3-tetrafluoro-1-propene] + FCF
Details | mass density
383 K, 2705.6 kPa, x2 = 0.449 | 91.15 kg/m3
383 K, 2835.7 kPa, x2 = 0.874 | 63.53 kg/m3
383 K, 3918.9 kPa, x2 = 0.874 | 95.42 kg/m3
383 K, 4682.2 kPa, x2 = 0.449 | 205.63 kg/m3
383 K, 5686.5 kPa, x2 = 0.449 | 308.85 kg/m3
383.01 K, 928.35 kPa, x2 = 0.449 | 26.9 kg/m3
383.01 K, 1476 kPa, x2 = 0.698 | 35.93 kg/m3
383.01 K, 2118 kPa, x2 = 0.698 | 53.97 kg/m3
383.01 K, 2705.6 kPa, x2 = 0.449 | 91.15 kg/m3
383.01 K, 2972.2 kPa, x2 = 0.698 | 81.06 kg/m3
383.01 K, 3646.5 kPa, x2 = 0.449 | 136.9 kg/m3
383.01 K, 4036.2 kPa, x2 = 0.698 | 121.75 kg/m3
383.01 K, 4682.4 kPa, x2 = 0.449 | 205.63 kg/m3
383.01 K, 5245.7 kPa, x2 = 0.698 | 182.87 kg/m3
383.02 K, 928.34 kPa, x2 = 0.449 | 26.9 kg/m3
383.02 K, 1012.8 kPa, x2 = 0.698 | 23.92 kg/m3
383.02 K, 1381.5 kPa, x2 = 0.874 | 28.16 kg/m3
383.02 K, 1914.9 kPa, x2 = 0.259 | 70.04 kg/m3
383.02 K, 1937.6 kPa, x2 = 0.449 | 60.69 kg/m3
383.02 K, 1937.7 kPa, x2 = 0.449 | 60.69 kg/m3
383.02 K, 2238 kPa, x2 = 0.119 | 94.52 kg/m3
383.02 K, 2635.6 kPa, x2 = 0.259 | 105.19 kg/m3
383.02 K, 2635.8 kPa, x2 = 0.259 | 105.19 kg/m3
383.02 K, 2972.4 kPa, x2 = 0.698 | 81.06 kg/m3
383.02 K, 3646.6 kPa, x2 = 0.449 | 136.9 kg/m3
383.02 K, 3919.7 kPa, x2 = 0.874 | 95.42 kg/m3
383.02 K, 4035.8 kPa, x2 = 0.698 | 121.75 kg/m3
383.02 K, 4396.6 kPa, x2 = 0.259 | 237.32 kg/m3
383.02 K, 5211.2 kPa, x2 = 0.259 | 356.45 kg/m3 and 356.44 kg/m3
383.02 K, 5215.7 kPa, x2 = 0.874 | 143.31 kg/m3
383.02 K, 5215.8 kPa, x2 = 0.874 | 143.31 kg/m3
383.02 K, 5245.8 kPa, x2 = 0.698 | 182.87 kg/m3
383.03 K, 934.81 kPa, x2 = 0.259 | 31.04 kg/m3
383.03 K, 1350.5 kPa, x2 = 0.449 | 40.4 kg/m3
383.03 K, 1351.5 kPa, x2 = 0.259 | 46.63 kg/m3
383.03 K, 1381.4 kPa, x2 = 0.874 | 28.16 kg/m3
383.03 K, 1611.8 kPa, x2 = 0.119 | 62.93 kg/m3
383.03 K, 1611.9 kPa, x2 = 0.119 | 62.93 kg/m3
383.03 K, 1915 kPa, x2 = 0.259 | 70.04 kg/m3
383.03 K, 1998.1 kPa, x2 = 0.874 | 42.29 kg/m3
383.03 K, 2238.3 kPa, x2 = 0.119 | 94.52 kg/m3
383.03 K, 2836.1 kPa, x2 = 0.874 | 63.53 kg/m3
383.03 K, 2989.1 kPa, x2 = 0.119 | 141.97 kg/m3
383.03 K, 3496.5 kPa, x2 = 0.259 | 158 kg/m3
383.03 K, 3777.6 kPa, x2 = 0.119 | 213.24 kg/m3
383.03 K, 4397.4 kPa, x2 = 0.259 | 237.31 kg/m3
383.03 K, 4464.7 kPa, x2 = 0.119 | 320.28 kg/m3
383.03 K, 4465 kPa, x2 = 0.119 | 320.28 kg/m3
383.04 K, 638.24 kPa, x2 = 0.259 | 20.67 kg/m3
383.04 K, 642.12 kPa, x2 = 0.874 | 12.48 kg/m3
383.04 K, 688.17 kPa, x2 = 0.698 | 15.93 kg/m3
383.04 K, 778.8 kPa, x2 = 0.119 | 27.9 kg/m3
383.04 K, 943.49 kPa, x2 = 0.874 | 18.75 kg/m3
383.04 K, 1130.2 kPa, x2 = 0.119 | 41.9 kg/m3
383.04 K, 1998.1 kPa, x2 = 0.874 | 42.29 kg/m3
383.04 K, 2989.2 kPa, x2 = 0.119 | 141.97 kg/m3
383.04 K, 3777.7 kPa, x2 = 0.119 | 213.24 kg/m3
383.05 K, 943.52 kPa, x2 = 0.874 | 18.75 kg/m3
383.05 K, 3496.8 kPa, x2 = 0.259 | 158 kg/m3
383.06 K, 935.34 kPa, x2 = 0.259 | 31.04 kg/m3
383.06 K, 1130.4 kPa, x2 = 0.119 | 41.9 kg/m3
